The target in assay [1] is T1, sensing domain of C. jejuni Tlp3 (Campylobacter jejuni, UniProt Q0P864).
T1 sequence (Q0P864 41-290): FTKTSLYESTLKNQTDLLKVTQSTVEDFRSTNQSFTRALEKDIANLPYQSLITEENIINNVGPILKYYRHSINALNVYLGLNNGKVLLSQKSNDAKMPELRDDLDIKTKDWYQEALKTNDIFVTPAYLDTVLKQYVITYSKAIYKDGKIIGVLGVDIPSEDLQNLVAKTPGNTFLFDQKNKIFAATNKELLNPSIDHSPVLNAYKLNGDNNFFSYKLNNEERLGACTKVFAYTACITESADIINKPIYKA
Kind of assay: Thermal shift assay. Type of assay: binding. Particulars: for Midpoint Transition Temperature in Presence of Ligand, Tm: 10 μM Tlp3, ligand 3 mM (L-valine 10 mM), pH 8.0.

Assay [2] has as its target T2, sensing domain of P. fluorescens CtaA (Pseudomonas fluorescens, UniProt Q3K7T6).
T2 sequence (Q3K7T6 30-277): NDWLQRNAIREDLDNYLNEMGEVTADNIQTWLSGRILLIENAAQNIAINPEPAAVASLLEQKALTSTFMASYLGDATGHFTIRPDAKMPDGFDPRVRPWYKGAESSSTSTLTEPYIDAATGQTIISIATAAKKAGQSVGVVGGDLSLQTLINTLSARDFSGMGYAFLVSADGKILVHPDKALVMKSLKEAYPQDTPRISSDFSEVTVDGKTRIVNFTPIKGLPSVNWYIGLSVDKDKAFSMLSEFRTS
Briefly: Thermal shift assay. Type of assay: binding. Particulars: for Midpoint Transition Temperature in Presence of Ligand, Tm: 5 μM CtaA, ligand 20 μM, pH 5.5.

Another assay concerns the target T3, TlpC (Helicobacter pylori, UniProt O24911).
T3 sequence (O24911 32-299): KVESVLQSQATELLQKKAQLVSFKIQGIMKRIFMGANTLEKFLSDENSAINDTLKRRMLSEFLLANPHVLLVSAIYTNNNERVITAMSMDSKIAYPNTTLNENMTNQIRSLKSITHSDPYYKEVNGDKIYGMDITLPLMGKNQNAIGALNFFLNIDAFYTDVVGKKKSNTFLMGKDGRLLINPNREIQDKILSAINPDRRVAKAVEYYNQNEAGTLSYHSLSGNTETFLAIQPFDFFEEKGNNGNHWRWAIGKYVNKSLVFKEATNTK
Particulars: 25 °C; cited from earlier work.

Values joined by “and” are separate entries in the source; they are usually repeats but may differ in a detail not shown here. Identical values can stand only once.

`CCC[C@H](N)C(=O)O` [L-Norvaline, L-norvaline]: in assay [1], the “Midpoint Transition Temperature in Presence of Ligand, Tm” value (“Midpoint Transition Temperature” for short) was 63.7 ± 0.3 °C.
As to `CC[C@H](C)[C@H](N)C(=O)O` [L-Isoleucine, L-isoleucine], the “Midpoint Transition Temperature” value in assay [1] was 64.5 ± 0.3 °C.
A word on the Kd: it is a measure of binding affinity in units of concentration. On to `C[C@H](N)C(=O)O` [L-Alanine, L-alanine], for which, in assay [2], the Kd is 4.6 µM and 3.2 µM; the “Midpoint Transition Temperature” value is 56.1 ± 0.1 °C.
With `C[C@H](O)C(=O)O` [L-Lactate, L-lactate], the “ΔHL(T) from ITC (enthalpy of ligand binding)” value at TlpC is on record as “–21.32 kcal mol^–1”.
Consider `N[C@@H](CO)C(=O)O` [L-Serine, L-serine], for which, in assay [2], the Kd was 9 µM and 4 µM; the “Midpoint Transition Temperature” value amounted to 55.1 ± 0.3 °C.
As to `CC(C)[C@H](N)C(=O)O` [L-Valine, L-valine], the Kd in assay [1] was 578 µM and 240 µM and 316 µM; in assay [2] it was 1.5 µM and 1.2 µM. Besides, the “Midpoint Transition Temperature” value in assay [1] amounted to 64.6 ± 0.3 °C; in assay [2], 57.6 ± 0.2 °C.
On to `CC(C)C[C@H](N)C(=O)O` [L-Leucine, L-leucine], for which, in assay [1], the Kd is 222 µM and 90 µM and 116 µM; the “Midpoint Transition Temperature” value stood at 64.2 ± 0.2 °C. Further, in assay [2], the Kd came to 5 ± 1 µM and the “Midpoint Transition Temperature” value came to 54.7 ± 0.3 °C.

The values are drawn from publication PMC11487536 (ACS Pharmacology & Translational Science, 2024).
